Measured values as given in patent US20200237909A1, “METHODS OF TREATING OR PREVENTING BREAST CANCER METASTASES USING ANTIBODIES TO JAGGED1 AND CHEMOTHERAPEUTIC AGENTS” (The Trustees of Princeton University, priority 2017, published 2020).

Test system: SCP28 cells
Assay: Parental SCP28 bone metastasis, late treatment with 15D11 and paclitaxel
Assay type: in vivo, mice
Conditions: low endogenous Jagged1
Text: FIG. 4. Synergistic inhibition of bone metastasis by SCP28 with combined treatment of 15D11 and chemotherapy. (A) Schematic illustration of the experimental procedure. (B) Quantification of bone metastasis burden based on BLI imaging. n=10. *p<0.05 and **p<0.01 by Mann-Whitney test. (C) Representative BLI images and X-ray images at week 6. (D) Representative H&E and TRAP staining images from the experiment. (E) Quantification of osteolytic lesions based on X-ray images. n=10. **p<0.01 by Student's t-test. (F) Quantification of TRAP+ osteoclasts from decalcified histological bone sections of hind limbs from mice, n=10. **p<0.01 by Student's t-test. Size bar: 100 μm for H&E and 50 μm for TRAP.
The strong inhibitory effect of the combined treatment on bone metastasis could potentially be explained by the combined effect of blocking Jagged1-dependent stromal engagement by 15D11 and cytotoxicity of paclitaxel to tumor cells. […]
Mice were purchased from Jackson laboratory. […] Spontaneous bone metastasis was monitored by X-ray imaging. […] Bone metastasis burden was monitored by weekly BLI and X-ray imaging. At the experimental endpoint, mice were euthanized for bone histology analysis and half of the bone samples were used for μCT imaging and bone density quantification.

`CC(=O)O[C@H]1C(=O)[C@@]2(C)[C@H]([C@H](OC(=O)c3ccccc3)[C@]3(O)C[C@H](OC(=O)[C@H](O)[C@@H](NC(=O)c4ccccc4)c4ccccc4)C(C)=C1C3(C)C)[C@]1(OC(C)=O)CO[C@@H]1C[C@@H]2O` [paclitaxel] was tested, and the bone metastasis burden was “only slightly reduced metastatic burden”.
